Source: patent US8124056B2, “High throughput genetic screening of lipid and cholesterol processing using fluorescent compounds” (Trustees of the University of Pennsylvania, priority 2000, dated 2012)

Experiments:
5 dpf zebrafish larvae = assay: Gall bladder fluorescence in 5 dpf zebrafish larvae soaked in fluorescent lipids; details: 5 dpf larvae soaked in the lipid
Description: A. Bright-field image of a 5 dpf larva soaked in PED6 (3 μg/ml, 2 hr). B. Corresponding fluorescent image, with intestinal (arrow) and gall bladder (arrowhead) labeling. C. Larva soaked in BODIPY-C5-PC (0.2 μg/ml).
To determine whether these reagents could be used to study organ specific PLA2 activity, the quenched fluorescent lipids were administered to zebrafish larvae at 5 dpf, a developmental stage when the major larval organ systems function (FIG. 2).
First, to establish that PED6 is swallowed by the larvae, an unquenched fluorescent lipid was administered to 5 dpf larvae, and the appearance of labeled lipid in the pharynx and intestinal lumen before the gallbladder was noted (FIGS. 3C & 4). […] Dissected adult gall bladders were lysed in embryo medium (EM) (30 μl) containing BODIPY-FL-C5-PC (0.1 μg) to release bile. PLA2 activity was determined as described (1). Measurements were compared with activity of bile-depleted gallbladders. […] Fluorescent images were captured over 1 hr using a Zeiss Axiocam 2 mounted on a Leica MZFL-III.

mice = assay: Biliary fluorescence in mice given PED6 by gavage; type: in vivo, mouse; details: PED6 1 μg by gavage, t=30 min
Description: FIG. 5. Lipid processing. […] C. Mouse digestive organs. D. Gall bladder fluorescence after processing (t=30 min) of PED6 (1 μg), administered by gavage. Symbols: gb, ball bladder; d, common bile duct; lv, liver. Scale bars, 1.0 mm (C and D), 200 μm (other images).

| Compound | time to gall bladder fluorescence after ingesting the lipid (5 dpf zebrafish larvae) | biliary (gall bladder) fluorescence after gavage (mice) |
| --- | --- | --- |
| CCCCCCCCCCCCCCCC(=O)OC[C@H](COP(=O)(O)OCCNC(=O)CCCCCNc1ccc([N+](=O)[O-])cc1[N+](=O)[O-])OC(=O)CCCCC1=[N+]2C(=Cc3c(C)cc(C)n3[B-]2(F)F)C=C1 [PED6, N-((6-(2,4-dinitrophenyl)amino)hexanoyl)-1-palmitoyl-2-BODIPY-FL-pentanoyl-sn-glycero-3-phosphoethanolamine] | 15 to 20 min | rapid appearance of biliary fluorescence |
| nitrobenzoxadiazole cholesterol [NDB cholesterol] | ≤ 30 min | – |
